Results reported in US20250313535A1, “ALPHA 4 BETA 7 INTEGRIN MODULATORS AND USES THEREOF” (DICE MOLECULES SV, INC., priority 2022, published 2025).

Key:
Format in all cases: cell-based
α4β7 integrin [1] = biological target: T1, α4β7 integrin (Homo sapiens (Human), UniProt P13612+P26010); assay: Integrin Adhesion Assay: Protocol 1 (MAdCAM-coated plate, RPMI-8866 cells, CellTiter GLO readout)
Summary of the method: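 RPMI-8866 cells (2×10^6 per mL) added with compounds (1% DMSO) to MAdCAM-coated wells blocked in HEPES/NaCl buffer with 1 mM MnCl2, 0.1 mM CaCl2, 1% BSA; 1 h at 37° C, 5% CO2. After four washes, bound cells read by CellTiter GLO luminescence; % inhibition vs DMSO and control wells, 4-parameter fit.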

α4β1 integrin = α4β1 integrin (Homo sapiens (Human), UniProt P05556+P13612); assay: Integrin Adhesion Assay: Protocol 5 (VCAM-coated plate, RPMI-8866 cells with stable LOF mutation of the ITGB7 gene); conditions: RPMI-8866 cells with stable LOF mutation of the ITGB7 gene; read-out: Mean IC50 α4β1 KO^b
α4β1 integrin, sequence (P13612 34-1032): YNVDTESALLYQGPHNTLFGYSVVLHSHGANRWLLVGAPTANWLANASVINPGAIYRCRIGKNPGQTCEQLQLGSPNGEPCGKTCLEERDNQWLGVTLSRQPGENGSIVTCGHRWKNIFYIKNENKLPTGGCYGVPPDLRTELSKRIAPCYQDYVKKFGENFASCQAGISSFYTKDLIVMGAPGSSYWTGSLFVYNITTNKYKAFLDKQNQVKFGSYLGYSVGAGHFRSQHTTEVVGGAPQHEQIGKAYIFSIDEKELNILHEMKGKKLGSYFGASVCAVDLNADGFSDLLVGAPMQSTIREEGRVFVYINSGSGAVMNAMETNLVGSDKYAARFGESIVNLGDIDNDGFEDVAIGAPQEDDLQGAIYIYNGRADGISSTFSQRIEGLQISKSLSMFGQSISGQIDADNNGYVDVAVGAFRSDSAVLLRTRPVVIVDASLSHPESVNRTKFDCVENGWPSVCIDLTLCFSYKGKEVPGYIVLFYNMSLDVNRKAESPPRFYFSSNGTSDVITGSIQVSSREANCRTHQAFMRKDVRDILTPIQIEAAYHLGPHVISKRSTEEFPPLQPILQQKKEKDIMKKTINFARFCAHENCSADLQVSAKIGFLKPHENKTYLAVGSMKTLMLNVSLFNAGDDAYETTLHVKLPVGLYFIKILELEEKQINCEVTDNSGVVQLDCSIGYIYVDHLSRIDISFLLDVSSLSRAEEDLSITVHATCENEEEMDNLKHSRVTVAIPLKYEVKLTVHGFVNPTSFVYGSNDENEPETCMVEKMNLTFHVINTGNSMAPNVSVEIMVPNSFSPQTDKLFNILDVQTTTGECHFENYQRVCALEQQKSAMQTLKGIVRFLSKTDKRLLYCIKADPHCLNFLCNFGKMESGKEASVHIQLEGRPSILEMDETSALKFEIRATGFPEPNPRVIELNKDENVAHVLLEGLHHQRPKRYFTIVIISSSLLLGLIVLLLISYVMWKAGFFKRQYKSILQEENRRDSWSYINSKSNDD
α4β1 integrin, sequence (P05556 21-798): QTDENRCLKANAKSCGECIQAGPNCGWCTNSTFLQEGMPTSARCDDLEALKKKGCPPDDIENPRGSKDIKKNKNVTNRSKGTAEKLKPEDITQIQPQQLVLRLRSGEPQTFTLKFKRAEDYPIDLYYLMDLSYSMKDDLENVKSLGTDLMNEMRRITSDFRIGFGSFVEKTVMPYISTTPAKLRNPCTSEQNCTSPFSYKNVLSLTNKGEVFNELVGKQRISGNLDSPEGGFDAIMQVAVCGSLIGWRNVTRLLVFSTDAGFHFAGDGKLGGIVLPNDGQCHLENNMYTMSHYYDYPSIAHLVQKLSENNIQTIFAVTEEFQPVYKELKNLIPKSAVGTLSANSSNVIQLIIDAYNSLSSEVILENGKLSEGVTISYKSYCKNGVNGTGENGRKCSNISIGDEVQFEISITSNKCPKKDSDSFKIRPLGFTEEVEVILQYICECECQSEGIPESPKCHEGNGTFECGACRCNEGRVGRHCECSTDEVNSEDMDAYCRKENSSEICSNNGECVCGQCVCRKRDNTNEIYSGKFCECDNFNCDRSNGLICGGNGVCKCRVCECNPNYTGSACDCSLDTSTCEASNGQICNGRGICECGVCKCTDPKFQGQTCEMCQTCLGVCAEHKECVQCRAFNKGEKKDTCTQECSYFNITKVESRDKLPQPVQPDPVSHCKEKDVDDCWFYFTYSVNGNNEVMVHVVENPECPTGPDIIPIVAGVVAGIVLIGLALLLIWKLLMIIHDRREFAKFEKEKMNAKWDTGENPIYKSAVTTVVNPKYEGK
Summary of the method: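 RPMI-8866 B cells with CRISPR/Cas9 ITGB7 knockout (clonal, verified by flow cytometry) adhered to VCAM-coated wells for 1 h at 37° C in HEPES/NaCl buffer with 1 mM MnCl2, 0.1 mM CaCl2, 1% BSA, 1% DMSO. Bound cells quantified by CellTiter-Glo luminescence after washing; % inhibition versus DMSO and control, 4-parameter fit.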

α4β7 integrin [2] = biological target: T1, α4β7 integrin; assay: Integrin Adhesion Assay: Protocol 4 (MAdCAM-coated plate, RPMI-8866 cells with stable LOF mutation of the ITGB1 gene)
Summary of the method: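 RPMI-8866 cells with CRISPR/Cas9 knockout of ITGB1 (2×10^6/mL) were added to MAdCAM-coated wells with compound (1% DMSO) in HEPES/NaCl buffer with 1 mM MnCl2, 0.1 mM CaCl2 and 1% BSA, then incubated 1 h at 37 °C. After four washes, adherent cells were quantified by CellTiter-Glo luminescence. Percent inhibition versus DMSO and control compound was fitted to 4-parameter curves.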

[3] = RPMI-8866 cells with stable LOF mutation of the ITGB1 gene, read-out: Mean IC50 α4β7 KO^a

T1 sequence (P13612 34-1032): as the sequence (P13612 34-1032) above
T1 sequence (P26010 20-798): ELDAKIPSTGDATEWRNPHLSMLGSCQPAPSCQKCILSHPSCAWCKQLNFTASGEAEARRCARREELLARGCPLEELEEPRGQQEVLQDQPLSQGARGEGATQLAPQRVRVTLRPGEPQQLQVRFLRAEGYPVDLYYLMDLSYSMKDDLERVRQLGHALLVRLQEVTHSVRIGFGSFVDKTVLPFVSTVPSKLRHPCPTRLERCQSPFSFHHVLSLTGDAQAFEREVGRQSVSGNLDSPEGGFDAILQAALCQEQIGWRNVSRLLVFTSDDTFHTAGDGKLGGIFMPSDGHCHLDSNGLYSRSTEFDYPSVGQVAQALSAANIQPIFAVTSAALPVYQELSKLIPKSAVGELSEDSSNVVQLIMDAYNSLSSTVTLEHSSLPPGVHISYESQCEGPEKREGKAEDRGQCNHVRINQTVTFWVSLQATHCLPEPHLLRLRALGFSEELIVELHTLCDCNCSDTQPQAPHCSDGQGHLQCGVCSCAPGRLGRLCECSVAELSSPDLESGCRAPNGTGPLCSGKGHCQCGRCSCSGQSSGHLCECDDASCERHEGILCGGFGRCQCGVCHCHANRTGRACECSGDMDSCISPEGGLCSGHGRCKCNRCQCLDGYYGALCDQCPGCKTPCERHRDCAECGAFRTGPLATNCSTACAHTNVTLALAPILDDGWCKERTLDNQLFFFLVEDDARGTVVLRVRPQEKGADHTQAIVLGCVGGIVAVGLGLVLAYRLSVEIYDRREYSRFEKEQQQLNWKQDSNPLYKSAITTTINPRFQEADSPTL

Row | Structure (SMILES) | IC50 (α4β7 integrin [1]) [nM] | IC50 (α4β1 integrin) [nM] | IC50 (α4β7 integrin [2]; [3]) [nM] | IC50 (α4β7 integrin [1]; protocol not given) [nM] | IC50 (α4β7 integrin [2]; Protocol 4, RPMI-8866 cells with LOF mutation of ITGB1, MAdCAM, read-out: Mean IC50 α4β7 KO) [nM]
1 | CN(C)Cc1cccc2c(-c3cccc4c(C[C@H](NC(=O)[C@]5(C)CC[C@H](N6CCOC[C@@H]6C(F)(F)F)CC5)C(=O)O)cccc34)nccc12 (single isomer, unassigned) [Compound 419] | 10 to 100 | > 1000 | 10 to 100 |  | 
2 | Cc1cccc(C)c1-c1ccc(F)c(C(=O)N[C@@H](Cc2cccc3c(-c4c(C(F)(F)F)c5ccccc5n(C)c4=O)cccc23)C(=O)O)c1F [Compound 307] | 100 to 1000 | > 1000 | 100 to 1000 |  | 
3 | Cn1c(=O)c(-c2cccc3c(C[C@H](NC(=O)c4c(F)ccc(-c5ccncc5)c4F)C(=O)O)cccc23)c(C(F)(F)F)c2ccccc21 [Compound 311] | 100 to 1000 |  | 100 to 1000 |  | 
4 | Cc1cccnc1-c1ccc(F)c(C(=O)N[C@@H](Cc2cccc3c(-c4c(C(F)(F)F)c5ccccc5n(C)c4=O)cccc23)C(=O)O)c1F [Compound 316] | 100 to 1000 | > 1000 | 10 to 100 |  | 
5 | Cn1c(C(=O)N[C@@H](Cc2cccc3c(-c4c(C(F)(F)F)c5ccccc5n(C)c4=O)cccc23)C(=O)O)cnc1C1CCOCC1 [Compound 328] | 100 to 1000 |  | 100 to 1000 |  | 
6 | CN(C)CC1CN(c2cc(F)c(C(=O)N[C@@H](Cc3cccc4c(-c5c(C(F)(F)F)c6ccccc6n(C)c5=O)cccc34)C(=O)O)c(F)c2)CCO1 (stereo partly drawn) [Compound 335] | 100 to 1000 |  | 100 to 1000 |  | 
7 | Cn1c(=O)c(-c2cccc3c(C[C@H](NC(=O)c4c(F)cc(N5CCOC(CN6CCCC6)C5)cc4F)C(=O)O)cccc23)c(C(F)(F)F)c2ccccc21 (stereo partly drawn) [Compound 339] | 100 to 1000 |  | 100 to 1000 |  | 
8 | Cn1c(=O)c(-c2cccc3c(C[C@H](NC(=O)c4c(F)cc(N5CC(F)(F)OC(F)(F)C5)cc4F)C(=O)O)cccc23)c(C(F)(F)F)c2ccccc21 [Compound 341] | 100 to 1000 |  | 100 to 1000 |  | 
9 | Cn1c(=O)c(-c2cccc3c(C[C@H](NC(=O)C4(C(F)(F)F)CCN(CC(F)(F)F)CC4)C(=O)O)cccc23)c(C(F)(F)F)c2ccccc21 [Compound 352] | 10 to 100 | 100 to 1000 | 10 to 100 |  | 
10 | Cn1c(=O)c(-c2cccc3c(C[C@H](NC(=O)c4c(F)cc(C5CCNC5)cc4F)C(=O)O)cccc23)c(C(F)(F)F)c2ccccc21 (stereo partly drawn) [Compound 366] | 100 to 1000 |  | 100 to 1000 |  | 
11 | CN(C)CCc1cc(F)c(C(=O)N[C@@H](Cc2cccc3c(-c4c(C(F)(F)F)c5ccccc5n(C)c4=O)cccc23)C(=O)O)c(F)c1 [Compound 367] | 100 to 1000 |  | 100 to 1000 |  | 
12 | COCCc1cc(F)c(C(=O)N[C@@H](Cc2cccc3c(-c4c(C(F)(F)F)c5ccccc5n(C)c4=O)cccc23)C(=O)O)c(F)c1 [Compound 368] | 100 to 1000 |  | 100 to 1000 |  | 
13 | Cn1c(=O)c(-c2cccc3c(C[C@H](NC(=O)c4c(F)cc(CCN5CC(F)C5)cc4F)C(=O)O)cccc23)c(C(F)(F)F)c2ccccc21 [Compound 371] | 100 to 1000 |  | 100 to 1000 |  | 
14 | Cn1c(=O)c(-c2cccc3c(C[C@H](NC(=O)c4c(F)cc(C5CCCOC5)cc4F)C(=O)O)cccc23)c(C(F)(F)F)c2ccccc21 (stereo partly drawn) [Compound 374] | 100 to 1000 |  | 100 to 1000 |  | 
15 | Cn1c(=O)c(-c2cccc3c(C[C@H](NC(=O)c4c(F)cc(NC5(C(F)F)CC5)cc4F)C(=O)O)cccc23)c(C(F)(F)F)c2ccccc21 [Compound 387] | 100 to 1000 |  | 100 to 1000 |  | 
16 | Cn1c(=O)c(-c2cccc3c(C[C@H](NC(=O)c4c(F)cc(N5CC6C(C5)C6(F)F)cc4F)C(=O)O)cccc23)c(C(F)(F)F)c2ccccc21 (stereo partly drawn) [Compound 389] | 100 to 1000 |  | 100 to 1000 |  | 
17 | Cn1c(=O)c(-c2cccc3c(C[C@H](NC(=O)[C@]4(C)CC[C@@H](N5CC(F)(F)C5)CC4)C(=O)O)cccc23)c(C(F)(F)F)c2ccccc21 [Compound 399] | 100 to 1000 |  | 10 to 100 |  | 
18 | Cn1c(=O)c(-c2cccc3c(C[C@H](NC(=O)[C@]4(C)CC[C@@H](N5CCS(=O)(=O)CC5)CC4)C(=O)O)cccc23)c(C(F)(F)F)c2ccccc21 [Compound 404] | 100 to 1000 |  | 100 to 1000 |  | 
19 | CN(C)c1ccc2c(c1)c(C(F)(F)F)c(-c1cccc3c(C[C@H](NC(=O)[C@]4(C)CC[C@@H](N5CCOC[C@@H]5C(F)(F)F)CC4)C(=O)O)cccc13)c(=O)n2C [Compound 409] | 100 to 1000 |  | 100 to 1000 |  | 
20 | CN(C)Cc1cccc2c(-c3cccc4c(C[C@H](NC(=O)[C@]5(C)CC[C@H](N6CCC(F)(F)CC6)CC5)C(=O)O)cccc34)nccc12 [Compound 425] | 100 to 1000 |  | 100 to 1000 |  | 
21 | Cn1c(=O)c(-c2cccc3c(C[C@H](NC(=O)c4c(F)cc(N5CC6(COC6)C5)cc4F)C(=O)O)cccc23)c(C(F)(F)F)c2ccccc21 [Compound 426] | 100 to 1000 |  | 100 to 1000 |  | 
22 | Cn1ccc(C(F)(F)F)c(-c2cccc3c(C[C@H](NC(=O)c4c(F)cc(N5CCOC[C@H]5c5ccccc5)cc4F)C(=O)O)cccc23)c1=O [Compound 438] | 100 to 1000 |  | 10 to 100 |  | 
23 | Cn1ccc(C(F)(F)F)c(-c2cccc3c(C[C@H](NC(=O)c4c(F)cc(N5CCOCC5c5ccc(C(F)(F)F)cc5)cc4F)C(=O)O)cccc23)c1=O (stereo partly drawn) [Compound 442] | 100 to 1000 |  | 100 to 1000 |  | 
24 | Cn1c(=O)c(-c2cccc3c(C[C@H](NC(=O)c4c(F)cccc4C(F)(F)F)C(=O)O)cccc23)c(C(F)(F)F)c2ccccc21 [Compound 443] | 100 to 1000 |  | > 1000 |  | 
25 | Cc1cccc(C)c1-c1cc(C(=O)N[C@@H](Cc2cccc3c(-n4c(=O)cc(CCN5CC(F)C5)n(C)c4=O)cccc23)C(=O)O)c(F)c(C(F)(F)F)c1 [Compound 1056] |  |  |  | 100 to 1000 | > 1000

Continued, values first:

Row | IC50 (α4β7 integrin [1]) [nM] | IC50 (α4β1 integrin) [nM] | IC50 (α4β7 integrin [2]; [3]) [nM] | IC50 (α4β7 integrin [1]; protocol not given) [nM] | IC50 (α4β7 integrin [2]; Protocol 4, RPMI-8866 cells with LOF mutation of ITGB1, MAdCAM, read-out: Mean IC50 α4β7 KO) [nM] | Structure (SMILES)
26 | 100 to 1000 |  | 100 to 1000 |  |  | Cc1n[nH]c(C(F)(F)F)c1-c1cc(F)c(C(=O)N[C@@H](Cc2cccc3c(-c4c(C(F)(F)F)c5ccccc5n(C)c4=O)cccc23)C(=O)O)c(F)c1 [Compound 310]
27 | 100 to 1000 |  | 100 to 1000 |  |  | Cn1c(=O)c(-c2cccc3c(C[C@H](NC(=O)c4c(F)cc(N5CCOc6ccccc65)cc4F)C(=O)O)cccc23)c(C(F)(F)F)c2ccccc21 [Compound 332]
28 | 100 to 1000 |  | 100 to 1000 |  |  | Cn1c(=O)c(-c2cccc3c(C[C@H](NC(=O)c4c(F)cc(N5CCOC[C@@H]5c5ccccc5)cc4F)C(=O)O)cccc23)c(C(F)(F)F)c2ccccc21 [Compound 336]
29 | 100 to 1000 |  | 100 to 1000 |  |  | Cn1c(=O)c(-c2cccc3c(C[C@H](NC(=O)c4c(F)cc(C5CCNCC5)cc4F)C(=O)O)cccc23)c(C(F)(F)F)c2ccccc21 [Compound 365]
30 | 100 to 1000 |  | 100 to 1000 |  |  | CN1CCC(c2cc(F)c(C(=O)N[C@@H](Cc3cccc4c(-c5c(C(F)(F)F)c6ccccc6n(C)c5=O)cccc34)C(=O)O)c(F)c2)C1 (stereo partly drawn) [Compound 372]
31 | 100 to 1000 |  | 100 to 1000 |  |  | Cn1c(=O)c(-c2cccc3c(C[C@H](NC(=O)c4c(F)ccc(C5CCC(F)(F)CC5)c4F)C(=O)O)cccc23)c(C(F)(F)F)c2ccccc21 [Compound 382]
32 | 100 to 1000 |  | 100 to 1000 |  |  | Cn1c(=O)c(-c2cccc3c(C[C@H](NC(=O)c4c(F)cc(N5CC(C(F)(F)F)C5)cc4F)C(=O)O)cccc23)c(C(F)(F)F)c2ccccc21 [Compound 388]
33 | 100 to 1000 |  | 100 to 1000 |  |  | Cn1c(=O)c(-c2cccc3c(C[C@H](NC(=O)C45CC(C(F)F)(C4)C5)C(=O)O)cccc23)c(C(F)(F)F)c2ccccc21 [Compound 390]
34 | 100 to 1000 |  | 100 to 1000 |  |  | Cn1c(=O)c(-c2cccc3c(C[C@H](NC(=O)[C@]4(C)CC[C@H](N5CC(F)(F)C5)CC4)C(=O)O)cccc23)c(C(F)(F)F)c2ccccc21 [Compound 400]
35 | 100 to 1000 |  | 100 to 1000 |  |  | Cn1c(=O)c(-c2cccc3c(C[C@H](NC(=O)c4c(F)cc([C@H]5C[C@@H](N(C)C)C5)cc4F)C(=O)O)cccc23)c(C(F)(F)F)c2ccccc21 [Compound 416]
36 | 100 to 1000 |  | 100 to 1000 |  |  | Cn1c(=O)c(-c2cccc3c(C[C@H](NC(=O)[C@]4(C(F)(F)F)CC[C@H](N5CCOC[C@@H]5C(F)(F)F)CC4)C(=O)O)cccc23)c(C(F)(F)F)c2ccccc21 [Compound 423]
37 | 100 to 1000 |  | 100 to 1000 |  |  | Cn1c(=O)c(-c2cccc3c(C[C@H](NC(=O)C45CC(NCC(F)(F)F)(C4)C5)C(=O)O)cccc23)c(C(F)(F)F)c2ccccc21 [Compound 447]
38 | 100 to 1000 |  | 100 to 1000 |  |  | Cn1c(=O)c(-c2cccc3c(C[C@H](NC(=O)C45CC(N6CCOCC6)(C4)C5)C(=O)O)cccc23)c(C(F)(F)F)c2ccccc21 [Compound 459]
39 | 100 to 1000 |  | 100 to 1000 |  |  | Cn1c(=O)c(-c2cccc3c(C[C@H](NC(=O)c4c(F)ccc(C(F)(F)F)c4F)C(=O)O)cccc23)c(C(F)(F)F)c2ccccc21 [Compound 461]
40 | 100 to 1000 |  | 100 to 1000 |  |  | Cn1c(=O)c(-c2cccc3c(C[C@H](NC(=O)c4c(F)cc(N5CCC(CO)C5)cc4F)C(=O)O)cccc23)c(C(F)(F)F)c2ccccc21 (stereo partly drawn) [Compound 462]
